The molecules below were run against human APJ receptor (Homo sapiens (Human), UniProt P35414) (assay: [35S]GTPγS binding assay on membranes from CHO cells stably expressing human APJ receptor). Settings: membranes of CHO cells stably expressing human APJ receptor, read-out: Activity hAPJ SPA EC50 IP.
human APJ receptor, sequence (P35414 whole entry): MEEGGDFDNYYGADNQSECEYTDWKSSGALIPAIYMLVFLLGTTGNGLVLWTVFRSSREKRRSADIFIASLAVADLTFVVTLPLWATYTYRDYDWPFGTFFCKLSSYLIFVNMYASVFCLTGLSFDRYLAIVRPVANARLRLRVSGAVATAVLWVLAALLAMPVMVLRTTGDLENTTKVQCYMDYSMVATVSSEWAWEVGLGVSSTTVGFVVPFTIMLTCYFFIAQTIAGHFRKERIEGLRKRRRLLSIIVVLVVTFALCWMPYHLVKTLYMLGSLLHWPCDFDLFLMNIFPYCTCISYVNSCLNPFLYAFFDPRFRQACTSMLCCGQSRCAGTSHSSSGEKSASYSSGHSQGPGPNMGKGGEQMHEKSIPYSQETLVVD
Assay type: biochemical
Method in brief: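 Agonist EC50 values come from non-linear regression of mean data from several independent runs. Membranes of CHO cells stably expressing human APJ were incubated 90 min at room temperature with [35S]GTPγS in buffer with optimized GDP, MgCl2 and NaCl, then read on a microplate imager.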
`COc1cccc(-c2nnc(NS(=O)(=O)[C@@H](C)[C@@H](OC(C)C)c3ncc(C)cn3)n2[C@@H](C)c2nc(C)no2)n1` (single isomer, unassigned) [Example 240.0, (1S,2S)-N-(5-(6-methoxy-2-pyridinyl)-4-((1S)-1-(3-methyl-1,2,4-oxadiazol-5-yl)ethyl)-4H-1,2,4-triazol-3-yl)-1-(5-methyl-2-pyrimidinyl)-1-(2-propanyloxy)-2-propanesulfonamide or (1S,2S)-N-(5-(6-methoxy-2-pyridinyl)-4-((1R)-1-(3-methyl-1,2,4-oxadiazol-5-yl)ethyl)-4H-1,2,4-triazol-3-yl)-1-(5-methyl-2-pyrimidinyl)-1-(2-propanyloxy)-2-propanesulfonamide] showed an EC50 of 2 nM.
With `COc1cnc([C@@H](C)[C@H](C)S(=O)(=O)Nc2nnc(-c3cccc(OC)n3)n2C2CC2)nc1` [Example 119.0] the EC50 was 28 nM.
With `COc1cccc(-c2nnc(NS(=O)(=O)[C@@H](C)[C@H](OC)c3ncc(Cl)cn3)n2C2CCCCC2)n1` [Example 184.0, (1R,2S)-1-(5-chloro-2-pyrimidinyl)-N-(4-cyclohexyl-5-(6-methoxy-2-pyridinyl)-4H-1,2,4-triazol-3-yl)-1-methoxy-2-propanesulfonamide] the EC50 was 7.3 nM.
Molecule `COCC(COC)n1c(NS(=O)(=O)[C@@H](C)[C@@H](OC(C)C)c2ncc(Cl)cn2)nnc1-c1ccccn1` [Example 113.0] has an EC50 of 1.8 nM.
`COCC1(n2c(NS(=O)(=O)[C@@H](C)[C@H](OC)c3ncc(Cl)cn3)nnc2-c2cccc(OC)n2)CCC1` [Example 50.0] showed an EC50 of 0.46 nM.
`CC(C)O[C@@H](c1ncc(Cl)cn1)[C@H](C)S(=O)(=O)Nc1nnc(-c2cccnc2)n1C1CC1` [Example 128.0] was tested, and the EC50 was 55 nM.
`COCC(COC)n1c(NS(=O)(=O)[C@@H](C)[C@H](C)c2ncc(C)cn2)nnc1-c1cccc(OC)n1` [Example 98.0] gave an EC50 of 6.2 nM.
Work on `COc1cccc(-c2nnc(NS(=O)(=O)[C@@H](C)[C@H](OC)c3ncc(Cl)cn3)n2Cc2cc(C(F)(F)F)no2)n1` [Example 205.0, (1R,2S)-1-(5-chloro-2-pyrimidinyl)-1-methoxy-N-(5-(6-methoxy-2-pyridinyl)-4-((3-(trifluoromethyl)-1,2-oxazol-5-yl)methyl)-4H-1,2,4-triazol-3-yl)-2-propanesulfonamide] yielded an EC50 of 4.5 nM.
`COc1cccc(-c2nnc(NS(=O)(=O)[C@@H](C)[C@H](OC)c3ncc(Cl)cn3)n2Cc2cnoc2)n1` [Example 186.0, (1R,2S)-1-(5-chloropyrimidin-2-yl)-N-(4-(isoxazol-4-ylmethyl)-5-(6-methoxypyridin-2-yl)-4H-1,2,4-triazol-3-yl)-1-methoxypropane-2-sulfonamide] was tested, and the EC50 was 98 nM.
Molecule `COc1cccc(-c2nnc(NS(=O)(=O)[C@@H](C)[C@H](OC)c3ncc(Cl)cn3)n2Cc2cc(C)no2)n1` [Example 189.0, (1R,2S)-1-(5-chloropyrimidin-2-yl)-1-methoxy-N-(5-(6-methoxypyridin-2-yl)-4-((3-methylisoxazol-5-yl)methyl)-4H-1,2,4-triazol-3-yl)propane-2-sulfonamide] has an EC50 of 18 nM.
For `COc1cccc(-c2nnc(NS(=O)(=O)[C@@H](C)[C@H](OC)c3ncc(Cl)cn3)n2[C@@H]2CC23CC3)n1` (single isomer, unassigned) [Example 91.0], the EC50 was 38 nM.
For `COc1cccc(-c2nnc(NS(=O)(=O)[C@@H](C)[C@H](OC)c3ncc(Cl)cn3)n2CC2CCO2)n1` (stereo partly drawn) [Example 137.0, (1R,2S)-1-(5-chloropyrimidin-2-yl)-1-methoxy-N-(5-(6-methoxypyridin-2-yl)-4-(oxetan-2-ylmethyl)-4H-1,2,4-triazol-3-yl)propane-2-sulfonamide], the EC50 was 22 nM.
`COc1cccc(-c2nnc(NS(=O)(=O)[C@@H](C)[C@H](OC)c3ncc(Cl)cn3)n2[C@H](C)c2cncnc2)n1` (single isomer, unassigned) [Example 337.0, (1R,2S)-1-(5-chloropyrimidin-2-yl)-1-methoxy-N-(5-(6-methoxypyridin-2-yl)-4-((R)-1-(pyrimidin-5-yl)ethyl)-4H-1,2,4-triazol-3-yl)propane-2-sulfonamide or (1R,2S)-1-(5-chloropyrimidin-2-yl)-1-methoxy-N-(5-(6-methoxypyridin-2-yl)-4-((S)-1-(pyrimidin-5-yl)ethyl)-4H-1,2,4-triazol-3-yl)propane-2-sulfonamide] gave an EC50 of 1.4 nM.
With `CC[C@@H](c1c(C)noc1C)n1c(NS(=O)(=O)[C@@H](C)[C@@H](OC(C)C)c2ncc(C)cn2)nnc1-c1cccc(OC)n1` (single isomer, unassigned) [Example 221.0, (1S,2S)-N-(4-((1R)-1-(3,5-dimethyl-1,2-oxazol-4-yl)propyl)-5-(6-methoxy-2-pyridinyl)-4H-1,2,4-triazol-3-yl)-1-(5-methyl-2-pyrimidinyl)-1-(2-propanyloxy)-2-propanesulfonamide or (1S,2S)-N-(4-((1S)-1-(3,5-dimethyl-1,2-oxazol-4-yl)propyl)-5-(6-methoxy-2-pyridinyl)-4H-1,2,4-triazol-3-yl)-1-(5-methyl-2-pyrimidinyl)-1-(2-propanyloxy)-2-propanesulfonamide] the EC50 was 14 nM.
In the case of `COc1cccc(-c2nnc(NS(=O)(=O)[C@@H](C)[C@H](OC)c3ncc(Cl)cn3)n2[C@@H](C)c2ncnn2C)n1` (single isomer, unassigned) [Example 248.0, (1R,2S)-1-(5-chloro-2-pyrimidinyl)-1-methoxy-N-(5-(6-methoxy-2-pyridinyl)-4-((1S)-1-(1-methyl-1H-1,2,4-triazol-5-yl)ethyl)-4H-1,2,4-triazol-3-yl)-2-propanesulfonamide or (1R,2S)-1-(5-chloro-2-pyrimidinyl)-1-methoxy-N-(5-(6-methoxy-2-pyridinyl)-4-((1R)-1-(1-methyl-1H-1,2,4-triazol-5-yl)ethyl)-4H-1,2,4-triazol-3-yl)-2-propanesulfonamide], the EC50 is reported as 270 nM.
`COc1cccc(-c2nnc(NS(=O)(=O)[C@@H](C)[C@H](OC)c3ncc(Cl)cn3)n2C[C@@H]2CCCOC2)n1` (racemic) [Example 311.0, (1R,2S)-1-(5-chloropyrimidin-2-yl)-1-methoxy-N-(5-(6-methoxypyridin-2-yl)-4-(((R)-tetrahydro-2H-pyran-3-yl)methyl)-4H-1,2,4-triazol-3-yl)propane-2-sulfonamide or (1R,2S)-1-(5-chloropyrimidin-2-yl)-1-methoxy-N-(5-(6-methoxypyridin-2-yl)-4-(((S)-tetrahydro-2H-pyran-3-yl)methyl)-4H-1,2,4-triazol-3-yl)propane-2-sulfonamide] showed an EC50 of 33 nM.
Work on `COc1cccc(-c2nnc(NS(=O)(=O)[C@@H](C)[C@H](OC)c3ncc(Cl)cn3)n2[C@@H](C)c2c(C)noc2C)n1` (racemic) [Example 310.0, (1R,2S)-1-(5-chloropyrimidin-2-yl)-N-(4-((R)-1-(3,5-dimethylisoxazol-4-yl)ethyl)-5-(6-methoxypyridin-2-yl)-4H-1,2,4-triazol-3-yl)-1-methoxypropane-2-sulfonamide or (1R,2S)-1-(5-chloropyrimidin-2-yl)-N-(4-((S)-1-(3,5-dimethylisoxazol-4-yl)ethyl)-5-(6-methoxypyridin-2-yl)-4H-1,2,4-triazol-3-yl)-1-methoxypropane-2-sulfonamide] yielded an EC50 of 7.4 nM.
Molecule `COc1cccc(-c2nnc(NS(=O)(=O)[C@@H](C)[C@H](OC)c3ncc(Cl)cn3)n2C[C@H]2CCCCO2)n1` (racemic) [Example 288.0, (1R,2S)-1-(5-chloropyrimidin-2-yl)-1-methoxy-N-(5-(6-methoxypyridin-2-yl)-4-(((R)-tetrahydro-2H-pyran-2-yl)methyl)-4H-1,2,4-triazol-3-yl)propane-2-sulfonamide or (1R,2S)-1-(5-chloropyrimidin-2-yl)-1-methoxy-N-(5-(6-methoxypyridin-2-yl)-4-(((S)-tetrahydro-2H-pyran-2-yl)methyl)-4H-1,2,4-triazol-3-yl)propane-2-sulfonamide] has an EC50 of 3.3 nM.
Molecule `CC[C@H](c1cc(F)cc(F)c1)n1c(NS(=O)(=O)[C@@H](C)[C@H](OC)c2ncc(Cl)cn2)nnc1-c1cccc(OC)n1` (single isomer, unassigned) [Example 343.0, (1R,2S)-1-(5-chloropyrimidin-2-yl)-N-(4-((R)-1-(3,5-difluorophenyl)propyl)-5-(6-methoxypyridin-2-yl)-4H-1,2,4-triazol-3-yl)-1-methoxypropane-2-sulfonamide or (1R,2S)-1-(5-chloropyrimidin-2-yl)-N-(4-((S)-1-(3,5-difluorophenyl)propyl)-5-(6-methoxypyridin-2-yl)-4H-1,2,4-triazol-3-yl)-1-methoxypropane-2-sulfonamide] has an EC50 of 0.1 nM.
Molecule `COCC(COC)n1c(NS(=O)(=O)[C@@H](C)[C@@H](OC(C)C)c2ncc(Cl)cn2)nnc1-c1cncc(C)c1` [Example 13.0, (1S,2S)-1-(5-chloro-2-pyrimidinyl)-N-(4-(1,3-dimethoxy-2-propanyl)-5-(5-methyl-3-pyridinyl)-4H-1,2,4-triazol-3-yl)-1-(2-propanyloxy)-2-propanesulfonamide] has an EC50 of 80 nM.
`COc1cccc(-c2nnc(NS(=O)(=O)[C@@H](C)[C@H](C)c3ncc(Cl)cn3)n2[C@@H](C)c2ncn(C)n2)n1` (single isomer, unassigned) [Example 238.0, (2S,3R)-3-(5-chloro-2-pyrimidinyl)-N-(5-(6-methoxy-2-pyridinyl)-4-((1R)-1-(1-methyl-1H-1,2,4-triazol-3-yl)ethyl)-4H-1,2,4-triazol-3-yl)-2-butanesulfonamide or (2S,3R)-3-(5-chloro-2-pyrimidinyl)-N-(5-(6-methoxy-2-pyridinyl)-4-((1S)-1-(1-methyl-1H-1,2,4-triazol-3-yl)ethyl)-4H-1,2,4-triazol-3-yl)-2-butanesulfonamide] showed an EC50 of 6.2 nM.
Work on `COCC(COC)n1c(NS(=O)(=O)[C@@H](C)[C@H](OC)c2cnc(OC)cn2)nnc1-c1cccc(OC)n1` [Example 101.0] yielded an EC50 of 8.9 nM.

— US10689367B2, “Triazole pyridyl compounds as agonists of the APJ receptor” (AMGEN INC., priority 2016, dated 2020)
